For this data set the following is noted: 101.33 kPa, Liquid; for viscosity: Capillary tube (Ostwald / Ubbelohde) method; for speed of sound: Pulse-echo method; for mass density: Vibrating tube method.

Each structure is given as a SMILES string. Numbers after ± are expanded uncertainties.

The values that follow come from the NIST ThermoML archive (doi:10.1021/je034076x).

Usually viscosity stands for the resistance of a fluid to flow. As a reminder, the speed of sound is how fast a sound wave travels through the sample. For orientation: mass density means mass per unit of volume. Consider `OCC(F)(F)F` [2,2,2-trifluoroethanol], for which the viscosity is, setting by setting: (283.15 K) 2.694 ± 0.02 mPa·s; (298.15 K) 1.755 ± 0.013 mPa·s; (313.15 K) 1.208 ± 0.0095 mPa·s. The speed of sound was determined as 872.7 ± 0.5 m/s (283.15 K), 833.2 ± 0.5 m/s (298.15 K) and 793.3 ± 0.5 m/s (313.15 K). Also, the mass density reads like this: (283.15 K) 1408.1 ± 0.3 kg/m3; (298.15 K) 1382.56 ± 0.28 kg/m3; (313.15 K) 1356.89 ± 0.27 kg/m3.

Consider `C1CCOC1` [tetrahydrofuran], for which the viscosity came to 0.5438 ± 0.0055 mPa·s (283.15 K), 0.4645 ± 0.0048 mPa·s (298.15 K) and 0.3992 ± 0.0043 mPa·s (313.15 K). Besides, the speed of sound by setting is: (283.15 K) 1348.8 ± 1.2 m/s; (298.15 K) 1279 ± 1.2 m/s; (313.15 K) 1204.8 ± 1.2 m/s. Besides, the mass density runs as follows: (283.15 K) 898.62 ± 0.47 kg/m3; (298.15 K) 882.18 ± 0.46 kg/m3; (313.15 K) 865.95 ± 0.45 kg/m3.
